Like-named read-outs stand apart in the source and are kept apart here.
Tests used:
AsPC-1 [1] = assay: MTT cell viability assay; format: cell-based, human
Protocol: (§1) The cell viability was assessed using MTT assay, as previously described. Briefly, the cells were seeded in 96-well plates (4 × 10^3 cells/well) and were treated for 72 h with different concentrations of RSV, DF5, and DF12. The IC50 values were extrapolated from dose–response curves and calculated using the CompuSyn software (https://www.combosyn.com/). The selectivity index (SI) values were calculated as ratios between the IC50 values of compounds in normal HFF-1 fibroblast cells and the IC50 values of the same compounds in the PC cell lines.

BxPC-3 [2] = assay: MTT cell viability assay; format: cell-based, human
Protocol: as §1

Capan-2 [3] = assay: MTT cell viability assay; format: cell-based, human
Protocol: as §1

AsPC-1 [4] = assay: Colony formation assay; format: cell-based, human; settings: AsPC-1, 20 µM, 72 h treatment
Protocol: (§2) A colony formation assay was performed as previously described. Briefly, the PC cells were seeded in 6-well plates, incubated for 24 h, and then treated for 72 h with 20 μM DF5, DF12, and RSV or with vehicle (DMSO) as indicated. After 4 days, following methanol fixation and crystal violet staining, the colonies of at least 30 cells were counted.

BxPC-3 [5] = assay: Colony formation assay; format: cell-based, human; settings: BxPC-3, 20 µM, 72 h treatment
Protocol: as §2

Capan-2 [6] = assay: Colony formation assay; format: cell-based, human; settings: Capan-2, 20 µM, 72 h treatment
Protocol: as §2

[7] = test system: AsPC-1, BxPC-3 and Capan-2 PC cell lines; assay: Cell growth, trypan blue exclusion test; format: cell-based, human; settings: 50 μM, counted at 24, 48 and 72 h, three PC cell lines, vs control
Protocol: The cell counting was performed using the trypan blue exclusion test. Briefly, PC cells were seeded in 24-well plates (5 × 10^4 cells/well) and then were treated with 50 μM of DF5, RSV, or with vehicle and counted at 24, 48, and 72 h.

p-SER^139H2AX = assay: Western blot of phospho-H2AX (γH2AX) in PC cell lines; format: cell-based, human
Protocol: (§3) The PC cell lines treated with 50 μM DF5, RSV, or with vehicle (DMSO) were lysed in a cell lysis buffer containing PMSF, protease inhibitors cocktails, and phosphatase inhibitors. The protein lysate quantification and immunoblot analyses were performed as previously described.

Cyclin D3 = assay: Western blot of cyclin D3 in PC cell lines; format: cell-based, human; settings: 50 μM
Protocol: as §3

Water solubility = format: physicochemical
Protocol: The solubility was determined as previously described. The calculated LogP (cLogP) value was determined using ACD LogP software package, version 4.55 (Advanced Chemistry Development Inc., Toronto, ON, Canada).

Cc1ccc(/C=C/c2ccc(O)cc2)cc1 [DF5]
IC50 (AsPC-1 [1]; Homo sapiens, ASPC1, AsPC-1, MTT, 72 h): 14.7 µM
Selectivity Index (SI) AsPC-1 (AsPC-1 [1]; SI = IC50 on normal HFF-1 fibroblast cells/IC50 on AsPC-1): > 6.79
IC50 (BxPC-3 [2]; Homo sapiens, BxPC-3, MTT, 72 h): 22.7 µM
Selectivity Index (SI) BxPC-3 (BxPC-3 [2]; SI = IC50 on normal HFF-1 fibroblast cells/IC50 on BxPC-3): > 4.41
effect on cell viability at maximum tested concentration (Capan-2 [3]; Capan-2, MTT, 100 µM): almost complete loss of cell viability
IC50 (Capan-2 [3]; Homo sapiens, Capan-2, MTT, 72 h): 27.8 µM
Selectivity Index (SI) Capan-2 (Capan-2 [3]; SI = IC50 on normal HFF-1 fibroblast cells/IC50 on Capan-2): > 3.60
effect on clonogenicity (colony formation) (AsPC-1 [4]): totally abolish colony formation
effect on clonogenicity (colony formation) (BxPC-3 [5]): totally abolish colony formation
effect on clonogenicity (colony formation) (Capan-2 [6]): more drastic, prominent, and consistent effects on PC cell clonogenicity
effect on cell growth (cell number) [7]: significantly, drastically, and comparably affected cell growth
activation (phosphorylation) of H2AX (p-SER^139H2AX; AsPC-1, 50 μM): marked activation of H2AX
activation (phosphorylation) of H2AX (p-SER^139H2AX; BxPC-3, 50 μM): negligible activation
activation (phosphorylation) of H2AX (p-SER^139H2AX; Capan-2, 50 μM): less marked
effect on cyclin D3 expression (Cyclin D3): clear-cut reduction or even an abolishment in the expression of cyclin D3
solubility (Water solubility; read-out: Classification (water solubility)): < 100 µg/mL
solubility (Water solubility; read-out: Water Solubility): < 10 µg/mL

From publication PMC9916441, “Resveratrol Derivative Exhibits Marked Antiproliferative Actions, Affecting Stemness in Pancreatic Cancer Cells” (International Journal of Molecular Sciences, 2023)
